Reference: patent publication US5837728A, “9-cis retinoic acid esters and amides and uses thereof” (priority 1995, dated 1998)

How the values were obtained:
[1] = system: ornithine decarboxylase (ODC); assay: ODC/Retinoid Bioassay: inhibition of TPA induced ornithine decarboxylase activity; assay type: in vivo, CD-1 mice; conditions: topical, TPA induced
Experimental: The ODC/Retinoid Bioassay is based on the method of Verma, A. K. and Boutwell, R. K., Cancer Res. (1977) 37:2196-2201. The ODC assay measures a compounds effect on the prevention of the induction of ODC, namely the effect of the retinoid compound on the inhibition of the tumor promoter 12-O-tetradecanoylphorbol-13-acetate (TPA) induced ODC activity. The assay is carried out using CD-1 mice (aged 7 to 9 weeks). The dorsal hair of the mice is shaved 3-4 days before testing. Four mice are used for each point. The test retinoids, at one of two dose levels (1.7 and 17 nmoles) dissolved in 0.2 ml of acetone is applied topically to the back of each shaved mouse. A single dose of TPA ([…]) is applied to the back of each treated mouse 30 minutes later. Control groups are treated with either acetone alone, TPA, or tretinoin. The mice are sacrificed by cervical dislocation 5 hours after TPA treatment.
The dorsal skin encompassing the shaved and TPA exposed area is excised and placed in a 100 ml beaker containing distilled water maintained at 51° C.-57° C. The skin is soaked for 50-70 seconds at this temperature with intermittent stirring. The skin is placed epidermis side up in a chilled (0°-5° C.) stainless steel plate and the epidermal layer is scraped off with a razor blade. The epidermal layers from the 4 mice are pooled and placed in a homogenization tube with 2 ml of ODA buffer ([…] with […] pyridoxal phosphate, […] ethylenediaminetetraacetic acid (EDTA), 1 mM dithiothreitol, pH 7.5). The pooled epidermal layers are homogenized for 15 seconds at 0° C. using a Polytron homogenizer at a setting of 7.5. The homogenate is centrifuged at 30,000×g and the supernatant fraction is pipetted into a storage tube and frozen for about 72 hours.
The homogenate is assayed for ODC activity as described by Verma and Boutwell to measure the release of ^14 CO2 from labeled DL(1-14C) ornithine. Incubations are carried out in disposable centrifuge tubes with center well holders containing filter paper impregnated with sodium hydroxide to absorb ^14 CO2. The incubation mixture consisted of 90 μl of L-ornithine, 350 μl of ODC buffer, 100 μl of 14C-ornithine (1.32 nm, Sp. Act:4.4 pCi/pM) and 10 μl of test sample. After incubation at 37° C. for 45 minutes, 0.5 ml of 2M chilled citric acid (4° C.) is added and incubation is continue for an additional 30 minutes to insure complete absorption of ^14 CO2. The filter paper is removed from the center well holders and set in 1 ml of water in capped scintillation vials for at least 1 hour before adding RBI 3820 scintillation cocktail. Radioactivity is measured in a Tri Carb Scintillation Counter. Results are expressed as pmol of ^14 CO2 released in 30 minutes per milligram of protein based on the specific activity of DL-14C-ornithine. The results are expressed in Table 2 below as the % reduction in ODC activity as compared to the control, for the compounds of each of the preceding Examples: […]

[2] = system: sebaceous gland; assay: Oral hamster sebaceous gland reduction assay; assay type: in vivo, male Syrian golden hamsters; design: key to the marks not given beside the values; conditions: 32 mg/kg
Experimental: An oral assay for hamster sebaceous gland reduction is conducted.
Hamsters are dosed orally with the test compound and vehicle alone. The reduction in sebaceous gland size is estimated microscopically in relation to the control. The assay is unique and proprietary to Ortho Pharmaceutical Corp. and is based upon the work of Plewig et al. (1977) and Gomex et al. (1980). Plewig, et al., Hamster Ear Model for Sebaceous Glands, J. Invest. Derm. 68: 171-176 (1977). Gomez, et al., Effect of 13-cis-Retinoic Acid on the Hamster Flank Organ, J. Invest. Derm. 74: 392-397 (1980).
For oral (p.o.) studies, male Syrian golden hamsters are […] at 5 ml/kg, once daily, five consecutive days/week for two or three weeks. Modified but similar dosing schedules could be used. Control hamsters are dosed with vehicle alone at 5 ml/kg. Following final treatment (up to 72 hours), the hamsters are sacrificed in a CO2 atmosphere. Samples of each test site are placed into 10% buffered formalin and histologically prepared. Serial sections of each sample are stained (H&E) and examined microscopically.
The reduction in sebaceous gland size is estimated microscopically in relation to the control treated sites. To quantify sebaceous gland size, cross-sectional areas are measured with an image analyzer system.

[3] = 17.0 nM (as printed in Table 2)

SMILES	ODC activity reduction [1, 3]	Sebaceous gland reduction [2]	ODC activity reduction ([1]; 1.7 nM (as printed in Table 2))
CC1=C(/C=C/C(C)=C/C=C/C(C)=C/C(=O)O)C(C)(C)CCC1 [all-trans-retinoic acid, reference compound]	+++	+++	–
COc1ccc(C(=O)COC(=O)/C=C(C)/C=C/C=C(C)\C=C\C2=C(C)CCCC2(C)C)cc1 [Compound 2, 2-(9-cis-retinoyloxy)-4'-methoxyacetophenone]	+++	+++	++
